# Measured values taken from EP0565593B1, “REDUCING PESTICIDAL INTERACTIONS IN CROPS” (priority 1990, dated 1992).
# Key:
# VELE (velvetleaf) [1] = experiment: Greenhouse test Procedure II (Example 4; Table 4); format: in vivo, Abutilon theophrasti; settings: 3 weeks
# Protocol: (§1) Containers were filled and compacted with a fumigated silt loam top soil to a depth of about 1.3 cm from the top of the container. A first container was designated as an untreated control, a second container was designated as a herbicide control, and a third container was designated as a herbicide + antidote test container. Each of the containers was seeded with a crop species. A measured amount of herbicide dispersed or dissolved in acetone was applied to a measured quantity of soil. To this same quantity of soil treated with herbicide, there was added a measured amount of antidote dispersed or dissolved in acetone. The quantity of soil treated with the herbicide and antidote was thoroughly mixed to incorporate the herbicide and antidote in the soil uniformly. The seed bed in the third container of soil was covered with the soil treated with the herbicide and antidote and the container was leveled. For each test series, the seed beds of the first and second containers were likewise covered by soil layers. the cover layer of the first container was not treated with herbicide or antidote.
# (§2) This procedure is the same as Procedure I, but modified in the manner that after incorporation of the chemicals (herbicide, antidote and insecticide), the containers with the covered seedbed were treated with an initial overhead irrigation equivalent to 0.6 cm rainfall, then subsequently sub-irrigated as required on greenhouse benches.
# (§3) The procedure used in this test was Procedure No. 2 above. Formulations of herbicide, insecticide and antidote were applied via track sprayer sequentially onto cover layers, incorporated into the soil which was spread over seedbeds, then irrigated from above with 0.6 cm water. Observations were made three (3) weeks after treatment.
# VELE (velvetleaf) [2] = experiment: Greenhouse test Procedure I with PPI or POE herbicide and foliar insecticide (Example 5; Table 5); format: in vivo, Abutilon theophrasti; settings: 3 weeks
# Protocol: as §1
# (§4) Insecticide application was made as described in the tests in the examples below. The containers were then placed on a bench in a greenhouse and sub-irrigated as required for the duration of the test.
# (§5) Said herbicide and antidote were sequentially pipetted onto cover layers, which were spread over the seed beds and subirrigated as in Procedure I and allowed to grow to a height of about 10 cm over a period of 11 days. Herbicide No. 1 and Insecticide No. 2 were then sequentially sprayed on the plant foliage. Observations were made three (3) weeks after initial treatment, 10 days after foliar treatment).
# Corn [3] = experiment: Field trials, PPI, PRE and POE herbicide applications with terbufos (Example 7); format: in vivo
# Source text: This example summarizes the results of one series of field trials from a plurality of locations and soil types wherein test chemicals were applied in various modes including pre-plant incorporated (PPI), post emergence (POE) and preemergence (PRE) with and without a safener (antidote). Test Chemicals were Herbicide Nos 1, 2, 3 and 7-9; Insecticide No. 1 and Antidote No. 1.
# In these trials Insecticide No. 1 (terbufos) was T-banded or furrow applied at labeled rates prior to planting corn. PPI herbicide treatments were applied prior to insecticide applications; PRE treatments were applied after the insecticide application either prior to or after seeding the corn. POE herbicide applications were made at 2 corn-growth stages, i.e., early post (EP) at the 2-3 leaf stage and late post (LP) at the 4-7 leaf stage. Plots were small plot with 3 replications in a randomized complete block design. In the PRE and PPI herbicide treatments, Antidote No. 1 was applied as a tankmix in both treatments. In the POE herbicide treatments, that antidote was applied as a tank mix with the herbicide at the EP and LP stages.
# Corn [4] = experiment: Greenhouse test Procedure I with PPI or POE herbicide and foliar insecticide (Example 5; Table 5); format: in vivo; settings: for % Injury Corn: 3 weeks
# Protocol: as §1, §4, §5
# Corn [5] = experiment: Greenhouse test Procedure II: herbicide, insecticide and antidote incorporated in cover layer (Example 4; Table 4); format: in vivo; settings: 3 weeks
# Protocol: as §1, §2, §3
# cotton (COTT) = experiment: Multi-crop greenhouse test, biocide, herbicide and safener applied to soil covers (Examples 65, 66; Tables 64, 65); format: in vivo
# Protocol: Tests according to this invention in various crops indicate widespread application of the invention. In Examples 62-66 below are described tests with a variety of herbicides contacted with COUNTER® 15G in the presence and absence of MON-7400 (Antidote No. 12); MON-13900 (No. 1); MON-4660 (No. 16) and flurazole (No. 16). Those tests were conducted according to Procedures IV or V described above and illustrated further in other foregoing examples. Plants used in all tests were, for crops (as abbreviated in parentheses); cotton (COTT); soybean (SOBE); CORN, grain sorghum (GRSO); wheat (WHEA) and RICE, and the weeds giant foxtail (GIFT) and velvetleaf (VELE). The data in the tables below represent averages of two replications.
# In this test the crops and weeds were planted 1.3 cm deep in 13.7 cm X 27.7 cm pans containing Dupo silt loam soil. The test safeners were applied in acetone solution and COUNTER 15G as dry granules to soil cover layers and incorporated by shaking in a bag. Treated cover layers were placed on seeded pans which were transferred to greenhouse benches and subirrigated. Herbicide was applied POE six (6) days after PPI initiation and observations of plant injury made ten (10) days later; results are shown in Table 61. The herbicide used in this example was BEACON (No. 8).
# In another test in the several crops and weeds used in this test series, the herbicidal component was MON-12000 (No. 1); the other components were the same. the procedure used in this test was the same as that described in Example 62, modified to use a light overhead irrigation (about 0.32 cm/day) during days 4-7 of the test.
# In yet another test in this series, XRD-498 (Herbicide No. 21) was used as the herbicidal component in contact with COUNTER 15G in the presence of the above safeners. The various components of the system (biocide, herbicide and safener) were applied concurrently to soil covers of the seeded plants.
# [6] = Antidote 1 0.07 + Herbicide 1 0.07 kg/Ha
# [7] = Antidote 1 0.07 + Herbicide 4 0.07 kg/Ha
# [8] = Antidote 1 0.07 + Herbicide 5 0.07 kg/Ha
# [9] = Antidote 1 0.07 + Herbicide 6 0.07 kg/Ha
# [10] = Antidote 1 0.14 + Herbicide 1 0.14 kg/Ha
# [11] = Antidote 1 0.14 + Herbicide 4 0.14 kg/Ha
# [12] = Antidote 1 0.14 + Herbicide 5 0.14 kg/Ha
# [13] = Antidote 1 0.14 + Herbicide 6 0.14 kg/Ha
# [14] = Insecticide 2 3.36 + Antidote 1 0.014 + Herbicide 1 0.14 kg/Ha
# [15] = Insecticide 2 3.36 + Antidote 1 0.07 + Herbicide 1 0.07 kg/Ha
# [16] = Insecticide 2 3.36 + Antidote 1 0.07 + Herbicide 4 0.07 kg/Ha
# [17] = Insecticide 2 3.36 + Antidote 1 0.07 + Herbicide 5 0.07 kg/Ha
# [18] = Insecticide 2 3.36 + Antidote 1 0.07 + Herbicide 6 0.07 kg/Ha
# [19] = Insecticide 2 3.36 + Antidote 1 0.14 + Herbicide 4 0.14 kg/Ha
# [20] = Insecticide 2 3.36 + Antidote 1 0.14 + Herbicide 5 0.14 kg/Ha
# [21] = Insecticide 2 3.36 + Antidote 1 0.14 + Herbicide 6 0.14 kg/Ha
# [22] = Antidote 1 0.14 + Herbicide 1 0.14 Kg/Ha PPI
# [23] = Antidote 1 0.56 + Herbicide 1 0.56 Kg/Ha PPI
# [24] = Antidote 1 2.24 + Herbicide 1 2.24 Kg/Ha PPI
# [25] = Insecticide 2 1.68 (foliar) + Antidote 1 0.14 + Herbicide 1 0.14 Kg/Ha PPI
# [26] = Insecticide 2 1.68 (foliar) + Antidote 1 2.24 + Herbicide 1 2.24 Kg/Ha PPI
# [27] = Insecticide 2 1.68 (foliar) + Antidote 1 2.24 Kg/Ha PPI, no herbicide
# [28] = Table 64, Herb. No. 1 0.018 Kg/Ha + Biocide No. 1 8.96 Kg/Ha + Antidote 4.48 Kg/Ha
# [29] = Table 64, Herb. No. 1 0.07 Kg/Ha + Biocide No. 1 8.96 Kg/Ha + Antidote 4.48 Kg/Ha
# [30] = Table 64, Herb. No. 1 0.28 Kg/Ha + Biocide No. 1 8.96 Kg/Ha + Antidote 4.48 Kg/Ha
# [31] = Table 65, Herb. No. 1 0.018 Kg/Ha + Biocide No. 1 8.96 Kg/Ha + Antidote 4.48 Kg/Ha
# [32] = Table 65, Herb. No. 1 0.07 Kg/Ha + Biocide No. 1 8.96 Kg/Ha + Antidote 4.48 Kg/Ha
# [33] = Table 65, Herb. No. 1 0.28 Kg/Ha + Biocide No. 1 8.96 Kg/Ha + Antidote 4.48 Kg/Ha
smiles,measurement,setting,value
"CC1(C)OC(c2ccco2)CN1C(=O)C(Cl)Cl (stereo not drawn) [Antidote No. 1, Oxazolidine, 3-(dichloroacetyl)-2,2-dimethyl-5-(2-furanyl)-]",% Injury VELE,VELE (velvetleaf) [1]; [6],8%
same,% Injury VELE,VELE (velvetleaf) [1]; [7],0%
same,% Injury VELE,VELE (velvetleaf) [1]; [8],68%
same,% Injury VELE,VELE (velvetleaf) [1]; [9],5%
same,% Injury VELE,VELE (velvetleaf) [1]; [10],43%
same,% Injury VELE,VELE (velvetleaf) [1]; [11],30%
same,% Injury VELE,VELE (velvetleaf) [1]; [12],68%
same,% Injury VELE,VELE (velvetleaf) [1]; [13],28%
same,% Injury VELE,VELE (velvetleaf) [1]; [14],53%
same,% Injury VELE,VELE (velvetleaf) [1]; [15],23%
same,% Injury VELE,VELE (velvetleaf) [1]; [16],0%
same,% Injury VELE,VELE (velvetleaf) [1]; [17],55%
same,% Injury VELE,VELE (velvetleaf) [1]; [18],15%
same,% Injury VELE,VELE (velvetleaf) [1]; [19],78%
same,% Injury VELE,VELE (velvetleaf) [1]; [20],83%
same,% Injury VELE,VELE (velvetleaf) [1]; [21],40%
same,% Injury VELE,VELE (velvetleaf) [2]; [22],85%
same,% Injury VELE,VELE (velvetleaf) [2]; [23],80%
same,% Injury VELE,VELE (velvetleaf) [2]; [24],93%
same,% Injury VELE,VELE (velvetleaf) [2]; [25],90%
same,% Injury VELE,VELE (velvetleaf) [2]; Insecticide 2 1.68 (foliar) + Antidote 1 0.56 + Herbicide 1 0.56 Kg/Ha PPI,93%
same,% Injury VELE,VELE (velvetleaf) [2]; [26],93%
same,% Injury VELE,VELE (velvetleaf) [2]; [27],0%
same,safening of insecticide interactions,"Corn [3]; antidote tankmix POE with Herbicide No. 7, Insecticide No. 1",effectively safened
same,crop injury,"Corn [3]; mean of nine locations, PRE and PPI, Insecticide No. 1, 1:1 Herbicide No. 1:Antidote No. 1 and 30:1 Herbicide No. 2:Antidote No. 1",reduced from non-commercially-acceptable to commercially-acceptable levels
same,% Injury Corn,Corn [4]; [22],0%
same,% Injury Corn,Corn [4]; [23],5%
same,% Injury Corn,Corn [4]; [24],0%
same,safening,Corn [4]; Ex. 5: PPI Herbicide No. 1 with or without Insecticide No. 2,safened PPI herbicide treatments
same,% Injury Corn,Corn [4]; [25],0%
same,% Injury Corn,Corn [4]; [26],0%
same,% Injury Corn,Corn [4]; [27],0%
same,% Injury Corn,Corn [5]; [6],0%
same,% Injury Corn,Corn [5]; [7],0%
same,% Injury Corn,Corn [5]; [8],20%
same,% Injury Corn,Corn [5]; [9],0%
same,% Injury Corn,Corn [5]; [10],10%
same,% Injury Corn,Corn [5]; [11],8%
same,% Injury Corn,Corn [5]; [12],55%
same,% Injury Corn,Corn [5]; [13],3%
same,% Injury Corn,Corn [5]; [14],0%
same,% Injury Corn,Corn [5]; [15],0%
same,% Injury Corn,Corn [5]; [16],25%
same,% Injury Corn,Corn [5]; [17],95%
same,% Injury Corn,Corn [5]; [18],5%
same,% Injury Corn,Corn [5]; [19],88%
same,% Injury Corn,Corn [5]; [20],95%
same,% Injury Corn,Corn [5]; [21],63%
CC1(C)OC(c2ccco2)CN1C(=O)C(Cl)Cl (stereo not drawn) [compound 1],% Inhibition COTT,cotton (COTT); [28],20%
same,% Inhibition COTT,cotton (COTT); [29],35%
same,% Inhibition COTT,cotton (COTT); [30],35%
same,% Inhibition COTT,cotton (COTT); [31],10%
same,% Inhibition COTT,cotton (COTT); [32],20%
same,% Inhibition COTT,cotton (COTT); [33],45%
COC(=O)COC(c1ccccc1)c1ccccc1 [compound 12],% Inhibition COTT,cotton (COTT); [28],10%
same,% Inhibition COTT,cotton (COTT); [29],40%
same,% Inhibition COTT,cotton (COTT); [30],40%
same,% Inhibition COTT,cotton (COTT); [31],15%
same,% Inhibition COTT,cotton (COTT); [32],10%
same,% Inhibition COTT,cotton (COTT); [33],35%
